Calls of active or inactive are those of the source. No cut-off for these calls is given here.
Experiments:
HeLa [1] = test: Induction of mitochondrial membrane potential alteration in human HeLa cells assessed as late apoptotic cells at 500 nM measured after 48 hrs by JC1 staining-based flow cytometry analysis (reference value: 0.009%); format: functional
HeLa [2] = test: Induction of apoptosis in human HeLa cells assessed as late apoptotic cells at 100 nM incubated for 24 hrs by annexin V FITC and propidium iodide staining based flow cytometry analysis (reference value: 0.05%); format: functional
HeLa [3] = test: Induction of mitochondrial membrane potential alteration in human HeLa cells assessed as early apoptotic cells at 100 nM measured after 48 hrs by JC1 staining-based flow cytometry analysis (reference value: 9.07%); format: functional
HeLa [4] = test: Inhibition of colony formation in human HeLa cells assessed as reduction in colony formation at 250 nM incubated for 24 hrs followed by culturing in fresh compound-free medium for 10 days by crystal violet staining based assay; format: functional, cell-based
HeLa [5] = test: Inhibition of cell migration in human HeLa cells at 10 to 1000 nM measured up to 24 hrs wound healing assay; format: functional, cell-based; conditions: dose 10-1000 nM, DDE = dose-dependent effect
HeLa [6] = test: Induction of apoptosis in human HeLa cells assessed as late apoptotic cells at 750 nM incubated for 24 hrs by annexin V FITC and propidium iodide staining based flow cytometry analysis (reference value: 0.05%); format: functional
HeLa [7] = test: Induction of apoptosis in human HeLa cells assessed as necrotic cells at 500 nM incubated for 72 hrs by annexin V FITC and propidium iodide staining based flow cytometry analysis (reference value: 2.88 %); format: functional
HeLa [8] = test: Induction of apoptosis in human HeLa cells assessed as late apoptotic cells at 750 nM incubated for 72 hrs by annexin V FITC and propidium iodide staining based flow cytometry analysis (reference value: 4.70%); format: functional
HeLa [9] = test: Induction of apoptosis in human HeLa cells assessed as necrotic cells at 100 nM incubated for 72 hrs by annexin V FITC and propidium iodide staining based flow cytometry analysis (reference value: 2.88 %); format: functional
HeLa [10] = test: Induction of apoptosis in human HeLa cells assessed as viable cells at 100 nM incubated for 48 hrs by annexin V FITC and propidium iodide staining based flow cytometry analysis (reference value: 85.5%); format: functional; conditions: read-out: Activity
HeLa [11] = test: Induction of apoptosis in human HeLa cells assessed as early apoptotic cells at 750 nM incubated for 48 hrs by annexin V FITC and propidium iodide staining based flow cytometry analysis (reference value: 6.01%); format: functional
HeLa [12] = test: Induction of apoptosis in human HeLa cells assessed as viable cells at 500 nM incubated for 72 hrs by annexin V FITC and propidium iodide staining based flow cytometry analysis (reference value: 90.1%); format: functional; conditions: read-out: Activity
HeLa [13] = test: Induction of apoptosis in human HeLa cells assessed as viable cells at 750 nM incubated for 48 hrs by annexin V FITC and propidium iodide staining based flow cytometry analysis (reference value: 85.5%); format: functional; conditions: read-out: Activity
HeLa [14] = test: Induction of cell cycle arrest in human HeLa cells assessed as accumulation of cells at G2/M phase at 100 to 2000 nM incubated for 24 to 48 hrs by […] flow cytometry; format: functional; conditions: dose 100-2000 nM, time 24-48 hrs, DDE = dose-dependent effect
A549 = test: cells; conditions: Homo sapiens, A549, 48 h
Description: Antiproliferative activity against human A549 cells assessed as reduction in cell viability incubated for 48 hrs by MTS assay

HUVEC = test: Antivascular activity against human HUVEC cells assessed as inhibition of tube formation at 500 nM incubated for 3 hrs by matrigel matrix based microscopic analysis; format: functional, cell-based
HeLa [15] = test: Induction of mitochondrial membrane potential alteration in human HeLa cells assessed as necrotic cells at 500 nM measured after 48 hrs by JC1 staining-based flow cytometry analysis (reference value: 0%); format: functional
HeLa [16] = test: Induction of apoptosis in human HeLa cells assessed as necrotic cells at 100 nM incubated for 24 hrs by annexin V FITC and propidium iodide staining based flow cytometry analysis (reference value: 1.14 %); format: functional
HeLa [17] = test: Induction of apoptosis in human HeLa cells assessed as viable cells at 1 uM incubated for 48 hrs by annexin V FITC and propidium iodide staining based flow cytometry analysis (reference value: 85.5%); format: functional; conditions: read-out: Activity
HeLa [18] = test: Induction of apoptosis in human HeLa cells assessed as necrotic cells at 500 nM incubated for 48 hrs by annexin V FITC and propidium iodide staining based flow cytometry analysis (reference value: 1.85 %); format: functional
[19] = Antiproliferative activity against human A549/PTX cells assessed as reduction in cell viability measured for 48 hrs by MTS assay; format: functional, cell-based
HeLa [20] = test: Induction of apoptosis in human HeLa cells assessed as early apoptotic cells at 500 nM incubated for 48 hrs by annexin V FITC and propidium iodide staining based flow cytometry analysis (reference value: 6.01%); format: functional
HeLa [21] = test: Induction of apoptosis in human HeLa cells assessed as late apoptotic cells at 1 uM incubated for 48 hrs by annexin V FITC and propidium iodide staining based flow cytometry analysis (reference value: 8.87%); format: functional
[22] = Resistance index, ratio of IC50 for antiproliferative activity against human A549/PTX cells assessed as reduction in cell viability to IC50 for antiproliferative activity against human A549 cells assessed as reduction in cell viability; format: functional
[23] = Metabolic stability in rat liver microsomes assessed as intrinsic clearance incubated for 5 mins in presence of NADPH by HPLC analysis; format: ADME, Microsome; conditions: read-out: CLH
HeLa [24] = test: Induction of mitochondrial membrane potential alteration in human HeLa cells assessed as viable cells at 1 uM measured after 48 hrs by JC1 staining-based flow cytometry analysis (reference value: 90.9%); format: functional; conditions: read-out: Activity
Tubulin = Tubulin (Sus scrofa, UniProt P02554+P02550); test: Inhibition of pig brain tubulin polymerization incubated for 19 mins by spectrophotometric method
HeLa [25] = test: Induction of mitochondrial membrane potential alteration in human HeLa cells assessed as early apoptotic cells at 750 nM measured after 48 hrs by JC1 staining-based flow cytometry analysis (reference value: 9.07 %); format: functional
HeLa [26] = test: Induction of mitochondrial membrane potential alteration in human HeLa cells assessed as late apoptotic cells at 250 nM measured after 48 hrs by JC1 staining-based flow cytometry analysis (reference value: 0.009%); format: functional
HeLa [27] = test: Induction of apoptosis in human HeLa cells assessed as early apoptotic cells at 750 nM incubated for 24 hrs by annexin V FITC and propidium iodide staining based flow cytometry analysis (reference value: 0.12%); format: functional
HeLa [28] = test: Induction of mitochondrial membrane potential alteration in human HeLa cells assessed as viable cells at 100 nM measured after 48 hrs by JC1 staining-based flow cytometry analysis (reference value: 90.9 %); format: functional; conditions: read-out: Activity
HeLa [29] = test: Induction of apoptosis in human HeLa cells assessed as early apoptotic cells at 1 uM incubated for 24 hrs by annexin V FITC and propidium iodide staining based flow cytometry analysis (reference value: 0.12%); format: functional
HCT-116 = test: Antiproliferative activity against human HCT-116 cells assessed as reduction in cell viability incubated for 48 hrs by MTS assay; format: functional, cell-based; conditions: HCT-116, 48 h
HeLa [30] = test: Induction of apoptosis in human HeLa cells assessed as late apoptotic cells at 100 nM incubated for 72 hrs by annexin V FITC and propidium iodide staining based flow cytometry analysis (reference value: 4.70%); format: functional

COc1cc(C(=O)c2nc(N3CCCC3)nc3ccsc23)cc(OC)c1OC
Activity (HeLa [1]): 0.019%
Activity (HeLa [2]): 5.04%
Activity (HeLa [3]): 7.59%
inhibition (HeLa [4]): Active
inhibition (HeLa [5]): Dde
Activity (HeLa [6]): 7.06%
Activity (HeLa [7]): 52.2%
Activity (HeLa [8]): 21.3%
Activity (HeLa [9]): 5.32%
viability at 0.1 µM (HeLa [10]): 60.7%
Activity (HeLa [11]): 7.72%
viability at 0.5 µM (HeLa [12]): 32.6%
viability at 0.75 µM (HeLa [13]): 36.7%
Activity (HeLa [14]): Dde
IC50 (A549): 14 nM
Activity (HUVEC): Active
Activity (HeLa [15]): 0.01%
Activity (HeLa [16]): 1.52%
viability at 1 µM (HeLa [17]): 0.77%
Activity (HeLa [18]): 8.84%
IC50 [19]: 24.4 nM
Activity (HeLa [20]): 4.64%
Activity (HeLa [21]): 41.2%
Ratio IC50 [22]: 1.7
microsomal CLint [23]: 40.8 µL/min/mg
viability at 1 µM (HeLa [24]): 44.6%
IC50 (Tubulin): 1600 nM
Activity (HeLa [25]): 43.3%
Activity (HeLa [26]): 0.01%
Activity (HeLa [27]): 8.59%
viability at 0.1 µM (HeLa [28]): 92.4%
Activity (HeLa [29]): 7.23%
IC50 (HCT-116): 21 nM
Activity (HeLa [30]): 8.57%

Source: ChEMBL document CHEMBL5126582, “Discovery of (2-(pyrrolidin-1-yl)thieno[3,2-d]pyrimidin-4-yl)(3,4,5-trimethoxyphenyl)methanone as a novel potent tubulin depolymerizing and vascular disrupting agent” (Eur J Med Chem, 2022)
